Measured values reported in PubChem BioAssay (NCI).
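Dose response: 5 concentrations. Exposure: 48 h. Format: 96-well plates. Endpoint: linear interpolation; highest concentration if not reached. TGI: total growth inhibition.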

Each compound was assayed on NCI/ADR-RES ovarian (assay: NCI tumour cell line growth inhibition, 48 h).
Compound Cc1cc(C)n(C2OC(CO)C(O)C(O)C2O)c(=S)c1C#N (configuration not stated) has a TGI of over 100 µM.
For COC(=O)C(COC(C)=O)NC(=O)/C=C/c1ccc(O)c(OC(C)=O)c1 (configuration not stated), the TGI was over 100 µM.
O=c1[nH]nc(Cc2ccccc2)[nH]1 was tested, and the TGI was over 100 µM.
With CCOP(=O)(CN1CCNCCNCC1)OCC the TGI was over 100 µM.
Work on CN(/N=C/c1ccc(OCc2cccc(COc3ccc(C=O)cc3)n2)cc1)c1cnn(-c2ccc(Cl)cc2Cl)c(=O)c1Cl yielded a TGI of over 100 µM.
With CC(C)Oc1ccc2c(c1)OCC1Cc3ccccc3OC21 (configuration not stated) the TGI was over 100 µM.
Compound O=C1C(Cl)C(c2cccc(Cl)c2)N1c1ccc(-n2c(=S)[nH]c3ccccc3c2=O)cc1 (configuration not stated) has a TGI of 70.8 µM.
For COc1cc2c(cc1OC)CCc1cc(OC)c(OC)cc1CC2, the TGI was over 100 µM.
Compound c1csc(-c2cc(-c3cccs3)c(-c3ccsc3)s2)c1 has a TGI of over 100 µM.
COc1ccc(N2C(=O)C3ON(C(C(N)=O)c4ccccc4)C(c4cc5ccccc5c5ccccc45)C3C2=O)cc1 (configuration not stated) was tested, and the TGI was over 50 µM.
Work on COc1ccccc1N1CCN(CCCN2/C(=C(\O)c3ccccc3)C(=O)c3c(C)cc(C)nc3S2(=O)=O)CC1 yielded a TGI of over 100 µM.
For NC(CCC(=O)O)C(=O)N1CCN(c2nc(N3CCCC3)c3nc(Cl)c(NCc4ccccc4)nc3n2)CC1 (configuration not stated), the TGI was 46.2 µM.
COC(=O)C(NC(=O)c1ccccc1)c1ccco1 (configuration not stated) gave a TGI of over 100 µM.
Work on CN1C2CCC1CC(CCNC(c1ccccc1)c1ccccc1)C2 (configuration not stated) yielded a TGI of over 100 µM.
In the case of c1ccc2c(c1)nc1n2CNC1, the TGI is reported as over 100 µM.
For CC1ON2CCCC2[C@H]1C(=O)N1C2CC3CCC2(CS1(=O)=O)C3(C)C (some centres not stated), the TGI was over 100 µM.
In the case of NNc1nncc2n[nH]nc12, the TGI is reported as over 100 µM.

What follows are compounds tested on MDA-N (assay: NCI tumour cell line growth inhibition, 48 h).
In the case of CCOC(=O)CN=C1NNS(=O)(=O)c2ccccc21, the TGI is reported as over 100 µM.
Cc1ccc(N=Nc2c(C)c(C#N)c(=S)n(C3OC(CO)C(O)C(O)C3O)c2C)cc1 (configuration not stated) gave a TGI of over 100 µM.
With COc1cc(/C=C2\N=C(c3ccccc3)N(c3nc4c(OC)ccc(OC)c4s3)C2=O)ccc1O the TGI was 62 µM.
O=C(Cc1ccccc1)N/N=C/c1ccccc1O gave a TGI of over 100 µM.
For CC(C)=CC(=O)C[C@H]1C(=O)O[C@@H]2C[C@H]3C(C)=CC(=O)[C@@H](O)[C@]3(C)[C@H]3[C@@]4(O)OC[C@]32[C@@H]1[C@@H](C)[C@H]4O, the TGI was 0.329 µM.
Compound COC(=O)C1C(=O)C=CN([C@H](C)c2ccccc2)[C@@H]1Cc1ccc(OC)c(OCc2ccccc2)c1I (some centres not stated) has a TGI of 34.3 µM.
For CN(C)CCCN1c2ccccc2Sc2cnccc21, the TGI was over 100 µM.
COc1ccc(C2C3=C(Nc4ncnn42)c2ccccc2OC3c2ccccc2)cc1 (configuration not stated) showed a TGI of 44.1 µM.
With C/C=C(/C)C(=O)O[C@H]1C[C@@H]2[C@@H](O)c3occ(C)c3C[C@]2(C)[C@@H](C)C1 the TGI was 41.7 µM.
Cc1cc(C)n(C2OC(CO)C(O)C(O)C2O)c(=S)c1C#N (configuration not stated) was tested, and the TGI was over 100 µM.
In the case of COC(=O)C(COC(C)=O)NC(=O)/C=C/c1ccc(O)c(OC(C)=O)c1 (configuration not stated), the TGI is reported as over 100 µM.
O=c1[nH]nc(Cc2ccccc2)[nH]1 showed a TGI of over 100 µM.
CCOP(=O)(CN1CCNCCNCC1)OCC showed a TGI of over 100 µM.
Compound CN(/N=C/c1ccc(OCc2cccc(COc3ccc(C=O)cc3)n2)cc1)c1cnn(-c2ccc(Cl)cc2Cl)c(=O)c1Cl has a TGI of over 100 µM.
CC(C)Oc1ccc2c(c1)OCC1Cc3ccccc3OC21 (configuration not stated) was tested, and the TGI was over 100 µM.
With O=C1C(Cl)C(c2cccc(Cl)c2)N1c1ccc(-n2c(=S)[nH]c3ccccc3c2=O)cc1 (configuration not stated) the TGI was 54.7 µM.
COc1cc2c(cc1OC)CCc1cc(OC)c(OC)cc1CC2 showed a TGI of over 100 µM.
With c1csc(-c2cc(-c3cccs3)c(-c3ccsc3)s2)c1 the TGI was over 100 µM.
Work on COc1ccc(N2C(=O)C3ON(C(C(N)=O)c4ccccc4)C(c4cc5ccccc5c5ccccc45)C3C2=O)cc1 (configuration not stated) yielded a TGI of 35.6 µM.
With COc1ccccc1N1CCN(CCCN2/C(=C(\O)c3ccccc3)C(=O)c3c(C)cc(C)nc3S2(=O)=O)CC1 the TGI was over 100 µM.
For NC(CCC(=O)O)C(=O)N1CCN(c2nc(N3CCCC3)c3nc(Cl)c(NCc4ccccc4)nc3n2)CC1 (configuration not stated), the TGI was 23.1 µM.
COC(=O)C(NC(=O)c1ccccc1)c1ccco1 (configuration not stated) gave a TGI of over 100 µM.
CN1C2CCC1CC(CCNC(c1ccccc1)c1ccccc1)C2 (configuration not stated) showed a TGI of 30.6 µM.
c1ccc2c(c1)nc1n2CNC1 was tested, and the TGI was over 100 µM.
In the case of CC1ON2CCCC2[C@H]1C(=O)N1C2CC3CCC2(CS1(=O)=O)C3(C)C (some centres not stated), the TGI is reported as over 100 µM.
NNc1nncc2n[nH]nc12 showed a TGI of over 100 µM.

Each compound was assayed on U251 CNS (assay: NCI tumour cell line growth inhibition, 48 h).
With CCOC(=O)CN=C1NNS(=O)(=O)c2ccccc21 the TGI was over 100 µM.
With Cc1ccc(N=Nc2c(C)c(C#N)c(=S)n(C3OC(CO)C(O)C(O)C3O)c2C)cc1 (configuration not stated) the TGI was 52.6 µM.
In the case of COc1cc(/C=C2\N=C(c3ccccc3)N(c3nc4c(OC)ccc(OC)c4s3)C2=O)ccc1O, the TGI is reported as over 100 µM.
For O=C(Cc1ccccc1)N/N=C/c1ccccc1O, the TGI was over 100 µM.
CC(C)=CC(=O)C[C@H]1C(=O)O[C@@H]2C[C@H]3C(C)=CC(=O)[C@@H](O)[C@]3(C)[C@H]3[C@@]4(O)OC[C@]32[C@@H]1[C@@H](C)[C@H]4O gave a TGI of 0.137 µM.
COC(=O)C1C(=O)C=CN([C@H](C)c2ccccc2)[C@@H]1Cc1ccc(OC)c(OCc2ccccc2)c1I (some centres not stated) was tested, and the TGI was 39.7 µM.
CN(C)CCCN1c2ccccc2Sc2cnccc21 was tested, and the TGI was over 100 µM.
In the case of COc1ccc(C2C3=C(Nc4ncnn42)c2ccccc2OC3c2ccccc2)cc1 (configuration not stated), the TGI is reported as over 100 µM.
For C/C=C(/C)C(=O)O[C@H]1C[C@@H]2[C@@H](O)c3occ(C)c3C[C@]2(C)[C@@H](C)C1, the TGI was 28.3 µM.
Cc1cc(C)n(C2OC(CO)C(O)C(O)C2O)c(=S)c1C#N (configuration not stated) showed a TGI of over 100 µM.
COC(=O)C(COC(C)=O)NC(=O)/C=C/c1ccc(O)c(OC(C)=O)c1 (configuration not stated) showed a TGI of over 100 µM.
O=c1[nH]nc(Cc2ccccc2)[nH]1 showed a TGI of over 100 µM.
CCOP(=O)(CN1CCNCCNCC1)OCC was tested, and the TGI was over 100 µM.
In the case of CN(/N=C/c1ccc(OCc2cccc(COc3ccc(C=O)cc3)n2)cc1)c1cnn(-c2ccc(Cl)cc2Cl)c(=O)c1Cl, the TGI is reported as over 100 µM.
